Data on four molecules can be found in ChEMBL document CHEMBL3638496, “Pyrazolopyrrolidine derivatives and their use in the treatment of disease” (2015).

As usually defined, the IC50 is the concentration that inhibits the measured activity by half.

One test concerns the target CREB-binding protein (Homo sapiens, UniProt Q92793). As to the kind of experiment: AlphaScreen In-Vitro Binding Assay: In order to assess bromodomain selectivity, we set up a binding assay using the bromodomain encoded by the CREBBP gene. Compounds were tested in the CREBBP assay with a similar protocol, however using AlphaScreen (Amplified Luminescent Proximity Homogeneous Assay, Perkin Elmer) as detection readout instead of TR-FRET. The assay was started by stepwise addition of 4.5 uL per well of bromo domain protein (50 mM HEPES, pH 7.5, 0.005% Tween20, 0.02% BSA, 150 mM NaCl, 324 nM His-CREBBP (1081-1197) (custom production at Viva Biotech Ltd.)) and 4.5 uL per well of peptide solution (50 mM HEPES, pH 7.5, 0.005% Tween20, 0.02% BSA, 150 mM NaCl, 120 nM acetyl-histone H4 (AcK 5, 8, 12) (Biosyntan GmbH)). Reactions were incubated at 30 C. for 35 minutes. Subsequently 4.5 uL per well detection mix (50 mM HEPES, pH 7.5, 0.005% Tween20, 0.02% BSA, 150 mM NaCl, 45 ug/ml Ni-chelate acceptor beads, 45 ug/mL streptavidin-donor beads) (Perkin Elmer)) were added. On the technique in general: Bead proximity is the source of the signal in Alpha formats.

For test [1], the target named is Bromodomain-containing protein 3 (Homo sapiens, UniProt Q15059). As to the kind of experiment: (§1) TR-FRET In-Vitro Binding Assay: All assays were performed in 384-well microtiter plates. Each assay plate contained 8-point serial dilutions for 40 test compounds, plus 16 high- and 16 low controls. Liquid handling and incubation steps were done on an Innovadyne Nanodrop Express equipped with a robotic arm (Thermo CatX, Perkin Elmer/Caliper Twister II) and an incubator (Liconic STX40, Thermo Cytomat 2C450). The assay plates were prepared by addition of 50 nl per well of compound solution in 90% DMSO HummingBird nanodispenser (Zinsser Analytic). The assay was started by stepwise addition of 4.5 uL per well of bromo domain protein (50 mM HEPES, pH 7.5, 0.005% Tween20, 0.1% BSA, 50 mM NaCl, 45 nM His-Brd2(60-472) or 45 nM His-Brd3(20-477) or 45 nM His-Brd4(44-477) all proteins produced in-house) and 4.5 uL per well of peptide solution (50 mM HEPES, pH 7.5, 0.005% Tween20, 0.1% BSA, 50 mM NaCl, 60 nM acetyl-histone H4 (AcK 5, 8, 12, 16) (Biosyntan GmbH)). Reactions were incubated at 30 C. for 35 minutes. In general terms: In TR-FRET formats the signal depends on donor and acceptor labels being close together.
Chain of Bromodomain-containing protein 3 (Q15059 whole entry, the tested form may be a part): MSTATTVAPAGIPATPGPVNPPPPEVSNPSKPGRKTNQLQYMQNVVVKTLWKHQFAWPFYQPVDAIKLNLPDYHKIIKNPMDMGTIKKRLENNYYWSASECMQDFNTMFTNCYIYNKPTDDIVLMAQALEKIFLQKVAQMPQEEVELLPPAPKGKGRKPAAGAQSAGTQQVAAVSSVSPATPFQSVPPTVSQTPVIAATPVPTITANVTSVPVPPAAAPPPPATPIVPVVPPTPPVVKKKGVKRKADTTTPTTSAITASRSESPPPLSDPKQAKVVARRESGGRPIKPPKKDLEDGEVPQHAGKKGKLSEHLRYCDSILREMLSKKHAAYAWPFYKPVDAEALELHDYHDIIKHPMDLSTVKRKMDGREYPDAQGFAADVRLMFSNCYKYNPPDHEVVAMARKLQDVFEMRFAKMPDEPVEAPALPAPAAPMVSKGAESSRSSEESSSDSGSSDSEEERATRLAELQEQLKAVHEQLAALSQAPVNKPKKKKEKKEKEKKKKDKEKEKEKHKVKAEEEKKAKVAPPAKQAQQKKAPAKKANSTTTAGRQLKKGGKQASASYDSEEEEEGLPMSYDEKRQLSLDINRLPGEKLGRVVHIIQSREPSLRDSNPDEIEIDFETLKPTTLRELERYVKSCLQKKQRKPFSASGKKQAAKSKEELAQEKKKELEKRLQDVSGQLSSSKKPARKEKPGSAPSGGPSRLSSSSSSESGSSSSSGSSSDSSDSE

Test [2] concerns the target Bromodomain-containing protein 2 (Homo sapiens, UniProt P25440). The test is described as §1.
Test [3] concerns the target Bromodomain-containing protein 4 (Homo sapiens, UniProt O60885). The test is described as §1.

Chain of Bromodomain-containing protein 2 (P25440 whole entry): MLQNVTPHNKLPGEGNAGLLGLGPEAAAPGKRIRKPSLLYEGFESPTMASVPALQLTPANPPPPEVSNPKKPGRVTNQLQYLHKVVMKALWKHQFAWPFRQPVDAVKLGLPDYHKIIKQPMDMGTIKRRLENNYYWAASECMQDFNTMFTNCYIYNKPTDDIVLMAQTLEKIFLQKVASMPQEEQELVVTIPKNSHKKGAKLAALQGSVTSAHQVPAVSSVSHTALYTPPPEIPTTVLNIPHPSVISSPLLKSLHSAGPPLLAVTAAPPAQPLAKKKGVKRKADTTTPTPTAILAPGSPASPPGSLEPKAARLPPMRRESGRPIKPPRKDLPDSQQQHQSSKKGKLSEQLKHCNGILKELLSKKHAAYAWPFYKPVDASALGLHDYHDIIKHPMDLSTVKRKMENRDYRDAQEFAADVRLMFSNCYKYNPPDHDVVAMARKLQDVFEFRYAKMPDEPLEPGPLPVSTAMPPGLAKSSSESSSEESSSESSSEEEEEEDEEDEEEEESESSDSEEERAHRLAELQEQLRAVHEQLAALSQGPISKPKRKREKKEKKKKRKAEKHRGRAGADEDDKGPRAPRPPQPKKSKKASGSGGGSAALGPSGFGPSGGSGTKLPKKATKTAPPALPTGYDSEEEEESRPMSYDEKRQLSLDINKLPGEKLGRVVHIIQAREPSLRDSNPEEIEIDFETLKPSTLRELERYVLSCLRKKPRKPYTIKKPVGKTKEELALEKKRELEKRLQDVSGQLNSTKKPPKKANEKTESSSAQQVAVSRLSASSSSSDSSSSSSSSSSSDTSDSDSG
Chain of CREB-binding protein (Q92793 whole entry, the tested form may be a part): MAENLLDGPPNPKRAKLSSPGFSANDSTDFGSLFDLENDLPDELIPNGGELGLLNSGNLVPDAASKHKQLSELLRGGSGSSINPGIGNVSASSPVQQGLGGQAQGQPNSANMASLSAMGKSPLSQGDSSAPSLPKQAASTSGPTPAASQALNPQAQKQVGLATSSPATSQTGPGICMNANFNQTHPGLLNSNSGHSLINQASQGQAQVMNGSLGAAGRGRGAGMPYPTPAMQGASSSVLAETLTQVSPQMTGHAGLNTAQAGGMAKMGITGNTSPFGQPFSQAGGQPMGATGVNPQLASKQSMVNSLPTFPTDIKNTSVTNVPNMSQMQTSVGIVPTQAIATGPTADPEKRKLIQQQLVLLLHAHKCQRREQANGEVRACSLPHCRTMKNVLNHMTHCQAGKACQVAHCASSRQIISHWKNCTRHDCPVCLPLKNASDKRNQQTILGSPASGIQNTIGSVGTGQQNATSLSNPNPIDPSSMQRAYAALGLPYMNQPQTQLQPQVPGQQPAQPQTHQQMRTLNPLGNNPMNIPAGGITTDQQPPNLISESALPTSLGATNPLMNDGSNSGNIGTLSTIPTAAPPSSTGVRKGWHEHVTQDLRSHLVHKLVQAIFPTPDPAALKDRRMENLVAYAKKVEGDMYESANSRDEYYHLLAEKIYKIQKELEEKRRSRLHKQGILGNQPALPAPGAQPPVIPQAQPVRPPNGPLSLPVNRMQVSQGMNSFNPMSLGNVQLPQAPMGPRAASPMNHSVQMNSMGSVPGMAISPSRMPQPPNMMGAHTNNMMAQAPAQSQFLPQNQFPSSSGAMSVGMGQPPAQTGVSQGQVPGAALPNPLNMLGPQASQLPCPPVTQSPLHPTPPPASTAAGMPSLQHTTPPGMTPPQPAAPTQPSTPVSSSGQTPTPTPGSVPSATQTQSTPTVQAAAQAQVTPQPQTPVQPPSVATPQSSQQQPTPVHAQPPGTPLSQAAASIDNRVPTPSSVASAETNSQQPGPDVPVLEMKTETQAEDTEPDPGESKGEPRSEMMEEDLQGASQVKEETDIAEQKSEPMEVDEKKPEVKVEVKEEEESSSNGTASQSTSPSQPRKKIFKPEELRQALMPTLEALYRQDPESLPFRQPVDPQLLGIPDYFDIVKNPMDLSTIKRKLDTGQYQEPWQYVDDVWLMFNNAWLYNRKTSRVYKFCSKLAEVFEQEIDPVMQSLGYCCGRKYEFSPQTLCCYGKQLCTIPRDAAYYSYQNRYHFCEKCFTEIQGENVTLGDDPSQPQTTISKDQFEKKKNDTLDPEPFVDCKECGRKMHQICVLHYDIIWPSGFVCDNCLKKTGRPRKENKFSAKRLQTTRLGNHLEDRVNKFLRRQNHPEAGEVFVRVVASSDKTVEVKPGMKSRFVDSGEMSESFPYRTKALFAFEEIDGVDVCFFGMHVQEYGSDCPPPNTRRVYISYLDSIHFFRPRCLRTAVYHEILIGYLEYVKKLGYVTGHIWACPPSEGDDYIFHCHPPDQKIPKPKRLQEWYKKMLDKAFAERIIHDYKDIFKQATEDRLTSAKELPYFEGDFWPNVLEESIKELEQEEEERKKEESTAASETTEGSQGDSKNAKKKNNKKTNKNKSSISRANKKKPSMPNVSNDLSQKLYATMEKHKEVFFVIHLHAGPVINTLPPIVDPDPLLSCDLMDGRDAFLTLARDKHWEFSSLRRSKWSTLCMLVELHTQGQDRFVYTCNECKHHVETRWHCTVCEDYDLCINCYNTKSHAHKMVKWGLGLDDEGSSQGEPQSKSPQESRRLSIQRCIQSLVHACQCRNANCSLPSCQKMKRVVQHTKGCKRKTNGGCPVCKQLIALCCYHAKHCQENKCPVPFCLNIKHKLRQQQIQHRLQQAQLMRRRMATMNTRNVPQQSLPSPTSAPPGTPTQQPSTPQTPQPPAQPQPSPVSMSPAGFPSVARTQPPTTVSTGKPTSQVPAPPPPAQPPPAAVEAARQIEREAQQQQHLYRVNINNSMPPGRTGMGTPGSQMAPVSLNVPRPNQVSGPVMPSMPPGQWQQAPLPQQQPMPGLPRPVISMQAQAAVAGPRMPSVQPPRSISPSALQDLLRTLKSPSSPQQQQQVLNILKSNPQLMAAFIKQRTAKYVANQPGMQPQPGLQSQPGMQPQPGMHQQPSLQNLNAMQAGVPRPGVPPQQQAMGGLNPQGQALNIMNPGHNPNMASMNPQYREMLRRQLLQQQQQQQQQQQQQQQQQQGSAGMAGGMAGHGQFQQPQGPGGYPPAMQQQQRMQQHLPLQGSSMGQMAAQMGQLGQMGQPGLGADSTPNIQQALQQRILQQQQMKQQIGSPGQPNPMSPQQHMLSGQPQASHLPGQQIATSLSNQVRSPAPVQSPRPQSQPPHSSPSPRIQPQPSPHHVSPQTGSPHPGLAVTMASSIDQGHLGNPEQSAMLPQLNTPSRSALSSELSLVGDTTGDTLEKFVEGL

For the molecule `CCc1nn(CCOC)c2c1C(c1ccc(Cl)cc1)N(c1cc(C)c(=O)n(C)c1)C2=O` (stereo not given), the IC50 came out at 4800 nM on CREB-binding protein, 44 nM in test [1] and 52 nM in test [2].

For `Cc1cc(N2C(=O)c3nn(C(C)C)c(C)c3C2c2ccc(Cl)cc2F)cn2c(C)nnc12` (stereo not given), the IC50 at CREB-binding protein stood at 2600 nM; in test [1] it was 60 nM; in test [3] it was 71 nM; in test [2], 120 nM.

`COc1ncccc1-n1nc2c(c1C)C(c1ccc(F)cc1F)N(c1cc(C)c3nnc(C)n3c1)C2=O` (stereo not given): the 50% inhibitory concentration (IC50) at CREB-binding protein amounted to 16000 nM; in test [1], 80 nM; in test [3] it was 55 nM; in test [2], 130 nM.

As to `Cc1[nH]nc2c1C(c1ccc(Cl)cc1F)N(c1cc(C)c(=O)n(C)c1)C2=O` (stereo not given), the half-inhibitory concentration (IC50) on CREB-binding protein stood at 2800 nM; in test [1], 170 nM; in test [3] it was 190 nM; in test [2], 270 nM.
